Assay [1] concerns multiple myeloma cells (OPM-2). Put plainly: Cancer cell line proliferation assay, OPM-2. The format is cell-based. The conditions noted are these: Homo sapiens, OPM-2 cells, 72 hours, CellTiter Glo, n = 2. The procedure:
(§1) The impact of the compound of Examples 7 and 14 on cancer cell proliferation was determined using patient derived NUT midline carcinoma cells (11060), multiple myeloma cells (OPM-2, DSMZ) and biphenotypic B myelomonocytic leukaemia cells (MV-4-11, ATCC) in a 72 hour proliferation assay. 11060 and OPM-2 cells were maintained in RPMI 1640 medium (Invitrogen) supplemented with 10% HI-FBS (Heat-Inactivated Fetal Bovine Serum, Hyclone) and 2 mM L-glutamine (Invitrogen) at 37° C. and an atmosphere of 5% CO2. MV-4-11 cells were maintained in IMDM media supplemented with 10% HI-FCS, 2 mM L-glutamine, 1× Non-essential amino acids (Invitrogen) and 1× sodium pyruvate (1 mM) (Invitrogen). Cells were diluted to 1.11×10^5 cells/mL and 90 μL/well plated into black sided, clear bottomed 96 well tissue culture plates (Corning), using growth media supplemented with penicillin/streptomycin (Invitrogen). Cells were incubated overnight at 37° C. and in one plate, ATP levels were measured using the CellTiter Glo assay (Promega) according to the manufacturer's instructions, to give a baseline reading (t=0). 3-fold serial dilutions of compounds ranging from 6 mM to 0.3 μM were prepared in 100% DMSO. The DMSO dilution series was diluted 20-fold in growth media before 10 μl of the resulting dilutions were added to the appropriate wells of the remaining cell plates. The final compound concentrations in the wells ranged from 30 μM to 1.5 nM in 0.5% DMSO. Cells were incubated with compounds for 72 hours before assaying for ATP content using CellTiter Glo (t=72). CellTiter Glo data from each t=72 time point was normalised to the relevant t=0 time point data, and expressed as % t=0.

Assay [2] has as its system biphenotypic B myelomonocytic leukaemia cells (MV-4-11). Put plainly: Cancer cell line proliferation assay, MV-4-11. The format is cell-based. The conditions noted are these: Homo sapiens, MV4-11, MV-4-11 cells, 72 hours, CellTiter Glo, n = 3. As for the experimental part: as §1
Assay [3] has as its system NUT midline carcinoma cells (11060). The experiment in a line: Cancer cell line proliferation assay, 11060. The format is cell-based. The conditions noted are these: 11060 cells, 72 hours, CellTiter Glo, n = 3. As for the experimental part:
as §1
For orientation: Cellular ATP, detected with luciferase, serves as a proxy for viable cell number.

In assay [4] the test system is Bromodomains BRD2, BRD3, BRD4 and BRDT. The experiment in a line: Fluoroligand affinity for mutated vs non-mutated bromodomain. The arrangement: species or system Human. The conditions noted are these: single residue mutations in the acetyl lysine binding pocket. As for the experimental part:
The binding of the compounds of formulae (I)-(XVI) to Bromodomains BRD2, BRD3, BRD4 and BRDT was assessed using mutated proteins to detect differential binding to either Binding Domain 1 (BD1) or Binding Domain 2 (BD2) on the bromodomain. These single residue mutations in the acetyl lysine binding pocket greatly lower the affinity of the fluoroligand (Reference Compound X) for the mutated domain (>1000 fold selective for the non-mutated domain). Therefore in the final assay conditions, binding of the fluoroligand to the mutated domain cannot be detected and subsequently the assay is suitable to determine the binding of compounds to the single non-mutated bromodomain. […]

The mark [5] stands for this setting: full curve fit, read-out: Cellular Proliferation: pIC50 (converted).
[6] abbreviates: read-out: Cellular Proliferation: gpIC50 (converted).

The structures appear in SMILES notation. Read-outs that look alike come from different tables or passages of the source. A value given as a limit tells only on which side of the number the result lay.

Two compounds from US10059699B2, “Tetrahydroquinoline derivatives as bromodomain inhibitors” (GlaxoSmithKline Intellectual Property (No.2) Limited, priority 2014, dated 2018) can be followed below.

Consider `CC(=O)N1c2ccc(C(N)=O)cc2[C@H](Nc2ncc(Cl)cn2)[C@@H](C)[C@@H]1C` [Example 7, (2S,3R,4R)-1-acetyl-4-((5-chloropyrimidin-2-yl)amino)-2,3-dimethyl-1,2,3,4-tetrahydroquinoline-6-carboxamide], for which the IC50 was 100 nM in assay [1] (setting [5]); 50.1 nM in assay [1] (setting [6]); 200 nM in assay [2] (setting [5]); 158 nM in assay [2] (setting [6]); 631 nM in assay [3] (setting [5]); 398 nM in assay [3] (setting [6]).

As for `COc1ccc2c(c1)C(c1ccc(Cl)cc1)=N[C@@H](CC(=O)NCCCCCNC(=O)CCCCCC1(C)/C(=C/C=C/C=C/C3=[N+](CCCCS(=O)(=O)O)c4ccc(S(=O)(=O)O)cc4C3(C)C)N(CCCCS(=O)(=O)[O-])c3ccc(S(=O)(=O)O)cc31)c1nnc(C)n1-2` (stereo partly shown) [Reference Compound X], in assay [4], the “selectivity for the non-mutated domain over the mutated domain” value was over 1000 fold.
